Assay results reported in the CheMixHub ionic liquid set.
± gives the uncertainty stated by the source.

Experiment: xn = mol fraction of the nth substance listed

Question: Which electrical conductivity (298.15 K, 100 kPa, frequency 0.001 MHz, x1 = 0.0006843) does the source give for `CCCCCCCCn1cc[n+](C)c1.[Br-]` + O here?
Answer: Its electrical conductivity is 0.249 ± 0.013 S/m.

Question: And the electrical conductivity (298.15 K, 100 kPa, frequency 0.001 MHz, x1 = 0.0009721)?
Answer: Its electrical conductivity is 0.348 ± 0.013 S/m.

Question: What about the electrical conductivity (298.15 K, 100 kPa, frequency 0.001 MHz, x1 = 0.001278) of the same molecule?
Answer: Its electrical conductivity is 0.462 ± 0.014 S/m.

Question: What about the electrical conductivity (298.15 K, 100 kPa, frequency 0.001 MHz, x1 = 0.001601) of the same molecule?
Answer: Its electrical conductivity is 0.576 ± 0.014 S/m.

Question: What about the electrical conductivity (298.15 K, 100 kPa, frequency 0.001 MHz, x1 = 0.001889) of the same molecule?
Answer: The electrical conductivity was 0.683 ± 0.014 S/m.

Question: And the electrical conductivity (298.15 K, 100 kPa, frequency 0.001 MHz, x1 = 0.002176)?
Answer: The electrical conductivity was 0.778 ± 0.015 S/m.

Question: What about the electrical conductivity (298.15 K, 100 kPa, frequency 0.001 MHz, x1 = 0.002445) of the same molecule?
Answer: The electrical conductivity was 0.88 ± 0.015 S/m.

Question: And the electrical conductivity (298.15 K, 100 kPa, frequency 0.001 MHz, x1 = 0.002714)?
Answer: The electrical conductivity was 0.965 ± 0.014 S/m.

Question: What about the electrical conductivity (298.15 K, 100 kPa, frequency 0.001 MHz, x1 = 0.003072) of the same molecule?
Answer: The electrical conductivity was 1.06 ± 0.013 S/m.

Question: And the electrical conductivity (298.15 K, 100 kPa, frequency 0.001 MHz, x1 = 0.003341)?
Answer: Its electrical conductivity is 1.1 ± 0.012 S/m.

Question: What about the electrical conductivity (298.15 K, 100 kPa, frequency 0.001 MHz, x1 = 0.003681) of the same molecule?
Answer: The electrical conductivity was 1.15 ± 0.013 S/m.

Question: What about the electrical conductivity (298.15 K, 100 kPa, frequency 0.001 MHz, x1 = 0.004092) of the same molecule?
Answer: Its electrical conductivity is 1.22 ± 0.013 S/m.

Question: And the electrical conductivity (298.15 K, 100 kPa, frequency 0.001 MHz, x1 = 0.004592)?
Answer: Its electrical conductivity is 1.28 ± 0.014 S/m.

Question: What about the viscosity (298.15 K, 100 kPa, x1 = 6.847e-05) of the same molecule?
Answer: Its viscosity is 0.892 ± 0.019 mPa·s.

Question: And the viscosity (298.15 K, 100 kPa, x1 = 0.0003279)?
Answer: The viscosity was 0.899 ± 0.019 mPa·s.

Question: What about the electrical conductivity (298.15 K, 101 kPa, frequency 1 MHz, x1 = 0.0001962) of the same molecule?
Answer: The electrical conductivity was 0.1011 ± 0.001 S/m.

Question: What about the viscosity (298.15 K, 101 kPa, x1 = 1.982e-05) of the same molecule?
Answer: The viscosity was 0.891 ± 0.019 mPa·s.

Question: And the viscosity (298.15 K, 101 kPa, x1 = 3.243e-05)?
Answer: The viscosity was 0.892 ± 0.019 mPa·s.

Question: And the viscosity (298.15 K, 101 kPa, x1 = 0.0001962)?
Answer: Its viscosity is 0.912 ± 0.011 mPa·s.

Question: And the viscosity (298.15 K, 101 kPa, x1 = 0.001831)?
Answer: Its viscosity is 0.965 ± 0.013 mPa·s.

Question: And the electrical conductivity (298.15 K, 101 kPa, x1 = 0.003519)?
Answer: Its electrical conductivity is 1.17 ± 0.02 S/m.

Question: What about the viscosity (298.15 K, 101 kPa, x1 = 0.003598) of the same molecule?
Answer: Its viscosity is 1.025 ± 0.014 mPa·s.

Question: And the electrical conductivity (298.15 K, 101 kPa, x1 = 0.00377)?
Answer: The electrical conductivity was 1.23 ± 0.03 S/m.

Question: What about the electrical conductivity (298.15 K, 101 kPa, x1 = 0.003967) of the same molecule?
Answer: The electrical conductivity was 1.26 ± 0.03 S/m.

Question: What about the electrical conductivity (298.15 K, 101 kPa, x1 = 0.004163) of the same molecule?
Answer: The electrical conductivity was 1.3 ± 0.03 S/m.

Question: And the electrical conductivity (298.15 K, 101 kPa, x1 = 0.004378)?
Answer: Its electrical conductivity is 1.34 ± 0.03 S/m.

Question: And the electrical conductivity (298.15 K, 101 kPa, x1 = 0.004538)?
Answer: The electrical conductivity was 1.36 ± 0.03 S/m.

Question: And the electrical conductivity (298.15 K, 101 kPa, x1 = 0.004717)?
Answer: Its electrical conductivity is 1.39 ± 0.03 S/m.

Question: What about the electrical conductivity (298.15 K, 101 kPa, x1 = 0.004895) of the same molecule?
Answer: The electrical conductivity was 1.41 ± 0.03 S/m.

Question: And the electrical conductivity (298.15 K, 101 kPa, x1 = 0.005109)?
Answer: Its electrical conductivity is 1.45 ± 0.03 S/m.

Question: And the electrical conductivity (298.15 K, 101 kPa, x1 = 0.005288)?
Answer: The electrical conductivity was 1.48 ± 0.03 S/m.

Question: And the viscosity (298.15 K, 101 kPa, x1 = 0.005443)?
Answer: The viscosity was 1.103 ± 0.014 mPa·s.

Question: And the electrical conductivity (298.15 K, 101 kPa, x1 = 0.005484)?
Answer: The electrical conductivity was 1.51 ± 0.03 S/m.

Question: What about the electrical conductivity (298.15 K, 101 kPa, x1 = 0.005698) of the same molecule?
Answer: Its electrical conductivity is 1.54 ± 0.03 S/m.

Question: And the electrical conductivity (298.15 K, 101 kPa, x1 = 0.005894)?
Answer: The electrical conductivity was 1.56 ± 0.03 S/m.

Question: What about the viscosity (298.15 K, 101 kPa, x1 = 0.007132) of the same molecule?
Answer: The viscosity was 1.172 ± 0.014 mPa·s.

Question: And the viscosity (303.15 K, 100 kPa, x1 = 0.0002)?
Answer: Its viscosity is 0.803 ± 0.017 mPa·s.

Question: And the viscosity (308.15 K, 100 kPa, x1 = 0.0003279)?
Answer: Its viscosity is 0.726 ± 0.015 mPa·s.

Question: And the electrical conductivity (308.15 K, 101 kPa, frequency 1 MHz, x1 = 0.0001962)?
Answer: The electrical conductivity was 0.122 ± 0.0013 S/m.

Question: What about the viscosity (308.15 K, 101 kPa, x1 = 0.0001962) of the same molecule?
Answer: Its viscosity is 0.736 ± 0.009 mPa·s.

Question: And the viscosity (313.15 K, 100 kPa, x1 = 0.0002)?
Answer: Its viscosity is 0.657 ± 0.014 mPa·s.
